# Results as given in the supplement of paper PMC10307832.
# Experiments:
# Assay in all cases: relative viability (nuclei count vs DMSO), 5 days (fraction); higher = more cells survive
# BI-2536 + Trametinib = compound: CC[C@@H]1C(=O)N(C)c2cnc(Nc3ccc(C(=O)NC4CCN(C)CC4)cc3OC)nc2N1C1CCCC1 [BI-2536] + CC(=O)Nc1cccc(-n2c(=O)n(C3CC3)c(=O)c3c(Nc4ccc(I)cc4F)n(C)c(=O)c(C)c32)c1 [Trametinib] (partner 0.02 µM)
# Summary of the method: (§1)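 Dosing by pin tool came one day after lung cancer cell lines were seeded in 1536-well plates, using either one drug or a fixed anchor-drug dose plus five library-drug doses (not always all listed) in √10 steps. After 5 days, nuclei were counted on 4× images. Relative viability is treated-well nuclei count divided by vehicle-well nuclei count, and values are medians of duplicate plates.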
# [1] = compound: CC1CC(=O)N(C2=CN=C(N=C2N1C3CCCC3)NC4=C(C=C(C=C4)C(=O)NC5CCN(CC5)C)OC)C [NPK76-II-72-1] + Nc1nc2[nH]cc(CCc3ccc(C(=O)N[C@@H](CCC(=O)O)C(=O)O)cc3)c2c(=O)[nH]1 [Pemetrexed] (partner 0.2 µM)
# Summary of the method: as §1
# BI-2536 + Pemetrexed = compound: CC[C@@H]1C(=O)N(C)c2cnc(Nc3ccc(C(=O)NC4CCN(C)CC4)cc3OC)nc2N1C1CCCC1 [BI-2536] + Nc1nc2[nH]cc(CCc3ccc(C(=O)N[C@@H](CCC(=O)O)C(=O)O)cc3)c2c(=O)[nH]1 [Pemetrexed] (partner 0.2 µM)
# Summary of the method: as §1
# BI-2536 + Foretinib = compound: CC[C@@H]1C(=O)N(C)c2cnc(Nc3ccc(C(=O)NC4CCN(C)CC4)cc3OC)nc2N1C1CCCC1 [BI-2536] + COc1cc2c(Oc3ccc(NC(=O)C4(C(=O)Nc5ccc(F)cc5)CC4)cc3F)ccnc2cc1OCCCN1CCOCC1 [Foretinib] (partner 0.25 µM)
# Summary of the method: as §1
Cell Line,relative viability (BI-2536 + Trametinib; first compound 0.01 µM),relative viability (BI-2536 + Trametinib; first compound 0.03162 µM),relative viability (BI-2536 + Trametinib; first compound 0.1 µM),relative viability (BI-2536 + Trametinib; first compound 0.3162 µM),relative viability (BI-2536 + Trametinib; first compound 1 µM),relative viability ([1]; first compound 0.01 µM),relative viability ([1]; first compound 0.03162 µM),relative viability ([1]; first compound 0.1 µM),relative viability ([1]; first compound 0.3162 µM),relative viability ([1]; first compound 1 µM),relative viability (BI-2536 + Pemetrexed; first compound 0.01 µM),relative viability (BI-2536 + Pemetrexed; first compound 0.03162 µM),relative viability (BI-2536 + Pemetrexed; first compound 0.1 µM),relative viability (BI-2536 + Pemetrexed; first compound 0.3162 µM),relative viability (BI-2536 + Pemetrexed; first compound 1 µM),relative viability (BI-2536 + Foretinib; first compound 0.01 µM),relative viability (BI-2536 + Foretinib; first compound 0.03162 µM),relative viability (BI-2536 + Foretinib; first compound 0.1 µM),relative viability (BI-2536 + Foretinib; first compound 0.3162 µM),relative viability (BI-2536 + Foretinib; first compound 1 µM)
HCC-827,0.594,0.538,0.506,0.324,0.225,0.293,0.275,0.302,0.264,0.278,0.232,0.253,0.224,0.227,0.187,1.03,0.958,0.86,0.254,0.234
SK-LU-1,0.347,0.514,0.335,0.218,0.386,0.972,1.05,0.925,1.03,1.04,0.94,0.938,0.392,0.265,0.243,0.839,0.778,0.291,0.213,0.197
NCI-H1975,0.252,0.363,0.295,0.12,0.122,0.261,0.288,0.274,0.297,0.303,0.297,0.276,0.22,0.169,0.168,0.942,0.85,0.508,0.148,0.114
NCI-H1651,0.786,0.868,0.789,0.518,0.123,0.534,0.61,0.611,0.527,0.6,0.613,0.583,0.511,0.139,0.0892,0.628,0.776,0.536,0.0828,0.0854
NCI-H441,0.517,0.29,0.158,0.154,0.162,0.293,0.266,0.246,0.274,0.25,0.287,0.242,0.195,0.148,0.13,0.918,0.673,0.261,0.194,0.222
LCLC-103H,0.671,0.711,0.69,0.336,0.277,–,0.441,0.425,0.472,0.442,0.458,0.488,0.344,0.231,0.225,0.802,0.854,0.618,0.161,0.153
LCLC-97TM1,0.189,0.179,0.2,0.0929,0.0902,0.178,0.196,0.164,0.158,0.155,0.176,0.159,0.0973,0.0981,0.0935,0.958,0.91,0.637,0.149,0.179
NCI-H1355,0.428,0.47,0.46,0.176,0.174,1.02,1,0.99,0.972,1.06,1.04,1,0.899,0.211,0.174,0.871,0.968,0.601,0.149,0.18
HOP-62,0.315,0.353,0.401,0.167,0.152,0.291,0.374,0.296,0.245,0.32,0.394,0.29,0.225,0.109,0.151,1.19,1.05,0.767,0.182,0.146
NCI-H2085,0.523,0.52,0.439,0.144,0.177,0.855,0.946,0.972,0.915,0.974,0.961,1.01,0.664,0.172,0.243,1.02,0.686,0.707,0.199,0.276
